Test results: patent publication US20150290192A1, “INHIBITORS OF BRUTON'S TYROSINE KINASE” (HOFFMANN-LA ROCHE INC., priority 2012, published 2015)
Read-outs that look alike come from different tables or passages of the source.

Test system: human B cells (BCR activation)
Assay: Human B cell antibody production after BCR activation
Assay type: cell-based
Conditions: for IC50: Homo sapiens, B-cell, N = 3 donors
Method: Human total B cells were enriched with RosetteSep human B cell enrichment cocktail (#28921, Vancouver, BC) from buffy coat leukocyte packs (New York Blood Center) following manufacturer's protocol. Enriched B cell purity (around 80%) was checked by FACS with CD19+ staining. B cells were suspended (0.1 million cells/well/100 μl) in RPMI-1640 based conditional medium (50 ng/ml IL-2, 50 ng/ml IL-10, and […] anti-IgD for the activation of B cells to produce IgG/IgM; 10 ng/ml IL-4, 10 ng/ml IL-10, 25 ng/ml IL-21, and […] anti-CD40 for the activation of B cells to produce IgE) together with Compound 1 (1 nM-10 μM). Cells were cultured for 10 days (for IgG/IgM production) or 14 days (for IgE production) at 37° C. Culture supernatants were collected for IgM, IgG, and IgE analysis following Bethyl Laboratory's protocol (#E80-104, #E80-100, #E80-108, Montgomery, Tex.).

IC50 (240 h, 10 days culture, read-out: IC50 IgG production): 4.15 nM
IC50 (240 h, 10 days culture, read-out: IC50 IgM production): 1.21 nM
IC50 (336 h, 14 days culture, read-out: IC50 IgE production): 1.47 nM
Structure (SMILES): CN1CCC(c2ccc(Nc3cc(-c4ccnc(-n5ncc6cc(C(C)(C)C)cc(F)c6c5=O)c4CO)nn(C)c3=O)nc2)CC1 [Compound 1, 6-tert-Butyl-8-fluoro-2-{3-hydroxymethyl-4-[1-methyl-5-(1′-methyl-1′,2′,3′,4′,5′,6′-hexahydro-[3,4′]bipyridinyl-6-ylamino)-6-oxo-1,6-dihydro-pyridazin-3-yl]-pyridin-2-yl}-2H-phthalazin-1-one]
reduction of levels of IgM, IgG, and IgE in the supernatant, efficacy (concentration dependent): up to 100%
